Measured values from patent publication US8394952B2 (Vertex Pharmaceuticals Incorporated, priority 2006, dated 2013).

Biological target: Plk1 (Homo sapiens, UniProt P53350)
Assay: biochemical

Chain of Plk1 (P53350 20-338): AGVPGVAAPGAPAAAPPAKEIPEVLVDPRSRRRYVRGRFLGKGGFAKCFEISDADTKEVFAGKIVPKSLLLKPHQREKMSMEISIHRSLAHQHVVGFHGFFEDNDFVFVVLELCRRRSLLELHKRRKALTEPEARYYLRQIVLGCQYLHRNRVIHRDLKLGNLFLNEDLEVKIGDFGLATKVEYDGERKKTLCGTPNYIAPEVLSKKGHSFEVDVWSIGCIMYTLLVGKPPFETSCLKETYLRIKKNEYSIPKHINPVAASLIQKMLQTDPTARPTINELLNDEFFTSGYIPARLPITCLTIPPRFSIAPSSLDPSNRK

Ki [nM]	SMILES
< 10	CNC(=O)c1ccc(Nc2ncc3c(n2)N(C2CCCC2)CC(C)(C)C(=O)N3C)c(OC)c1 [Compound I-16, 4-(9-cyclopentyl-6,7,8,9-tetrahydro-5,7,7-trimethyl-6-oxo-5H-pyrimido[4,5-b][1,4]diazepin-2-ylamino)-3-methoxy-N-methylbenzamide]
< 10	CNC(=O)c1ccc(Nc2ncc3c(n2)N(C2CCCC2)C[C@H](C)C(=O)N3C)c(OC)c1 [Compound I-17, 4-((S)-9-cyclopentyl-6,7,8,9-tetrahydro-5,7-dimethyl-6-oxo-5H-pyrimido[4,5-b][1,4]diazepin-2-ylamino)-3-methoxy-N-methylbenzamide]
< 10	CNC(=O)c1ccc(Nc2ncc3c(n2)N(C2CCCC2)C[C@@H](C)C(=O)N3C)c(OC)c1 [Compound I-18, 4-((R)-9-cyclopentyl-6,7,8,9-tetrahydro-5,7-dimethyl-6-oxo-5H-pyrimido[4,5-b][1,4]diazepin-2-ylamino)-3-methoxy-N-methylbenzamide]
10 to 100	CNC(=O)c1ccc(Nc2ncc3c(n2)N([C@@H]2CCNC2)CC(C)(C)C(=O)N3C)c(OC)c1 [Compound I-19, 4-(6,7,8,9-tetrahydro-5,7,7-trimethyl-6-oxo-9-((R)-pyrrolidin-3-yl)-5H-pyrimido[4,5-b][1,4]diazepin-2-ylamino)-3-methoxy-N-methylbenzamide]
10 to 100	CNC(=O)c1ccc(Nc2ncc3c(n2)N([C@@H]2CCN(C)C2)CC(C)(C)C(=O)N3C)c(OC)c1 [Compound I-20, 4-(6,7,8,9-tetrahydro-5,7,7-trimethyl-9-((R)-1-methylpyrrolidin-3-yl)-6-oxo-5H-pyrimido[4,5-b][1,4]diazepin-2-ylamino)-3-methoxy-N-methylbenzamide]
< 10	COc1cc(C(=O)NC2CCN(C)CC2)ccc1Nc1ncc2c(n1)N(C1CCCC1)C[C@H](C)C(=O)N2C [Compound I-21, 4-((S)-9-cyclopentyl-6,7,8,9-tetrahydro-5,7-dimethyl-6-oxo-5H-pyrimido[4,5-b][1,4]diazepin-2-ylamino)-3-methoxy-N-(1-methylpiperidin-4-yl)benzamide]
< 10	COc1cc(C(=O)NC2CCN(C)CC2)ccc1Nc1ncc2c(n1)N(C1CCCC1)C[C@@H](C)C(=O)N2C [Compound I-22, 4-((R)-9-cyclopentyl-6,7,8,9-tetrahydro-5,7-dimethyl-6-oxo-5H-pyrimido[4,5-b][1,4]diazepin-2-ylamino)-3-methoxy-N-(1-methylpiperidin-4-yl)benzamide]
< 10	COc1cc(C(=O)NC2CCN(C)CC2)ccc1Nc1ncc2c(n1)N(C1CCCC1)CC(C)(C)C(=O)N2C [Compound I-23, 4-(9-cyclopentyl-6,7,8,9-tetrahydro-5,7,7-trimethyl-6-oxo-5H-pyrimido[4,5-b][1,4]diazepin-2-ylamino)-3-methoxy-N-(1-methylpiperidin-4-yl)benzamide]
< 10	COc1cc(C(=O)Nc2ccncc2)ccc1Nc1ncc2c(n1)N(C1CCCC1)CC(C)(C)C(=O)N2C [Compound I-24, 4-(9-cyclopentyl-6,7,8,9-tetrahydro-5,7,7-trimethyl-6-oxo-5H-pyrimido[4,5-b][1,4]diazepin-2-ylamino)-3-methoxy-N-(pyridin-4-yl)benzamide]
< 10	COc1cc(C(=O)NC2CN(C)C2)ccc1Nc1ncc2c(n1)N(C1CCCC1)CC(C)(C)C(=O)N2C [Compound I-25, 4-(9-cyclopentyl-6,7,8,9-tetrahydro-5,7,7-trimethyl-6-oxo-5H-pyrimido[4,5-b][1,4]diazepin-2-ylamino)-3-methoxy-N-(1-methylazetidin-3-yl)benzamide]
< 10	COc1cc(C(=O)N[C@@H]2CCN(C)C2)ccc1Nc1ncc2c(n1)N(C1CCCC1)CC(C)(C)C(=O)N2C [Compound I-26, 4-(9-cyclopentyl-6,7,8,9-tetrahydro-5,7,7-trimethyl-6-oxo-5H-pyrimido[4,5-b][1,4]diazepin-2-ylamino)-3-methoxy-N—((R)-1-methylpyrrolidin-3-yl)benzamide]
< 10	COc1cc(C(=O)NCCc2cncn2C)ccc1Nc1ncc2c(n1)N(C1CCCC1)CC(C)(C)C(=O)N2C [Compound I-27, 4-(9-cyclopentyl-6,7,8,9-tetrahydro-5,7,7-trimethyl-6-oxo-5H-pyrimido[4,5-b][1,4]diazepin-2-ylamino)-3-methoxy-N-(2-(1-methyl-1H-imidazo-5-yl)ethyl)benzamide]
< 10	COc1cc(C(=O)NCCCN2CCN(C)CC2)ccc1Nc1ncc2c(n1)N(C1CCCC1)CC(C)(C)C(=O)N2C [Compound I-28, 4-(9-cyclopentyl-6,7,8,9-tetrahydro-5,7,7-trimethyl-6-oxo-5H-pyrimido[4,5-b][1,4]diazepin-2-ylamino)-3-methoxy-N-(3-(4-methylpiperazin-1-yl)propyl)benzamide]
10 to 100	CNC(=O)c1ccc(Nc2ncc3c(n2)N(C2CC2)CC(C)(C)C(=O)N3C)c(OC)c1 [Compound I-30, 4-(9-cyclopropyl-6,7,8,9-tetrahydro-5,7,7-trimethyl-6-oxo-5H-pyrimido[4,5-b][1,4]diazepin-2-ylamino)-3-methoxy-N-methylbenzamide]
< 10	COc1cc(C(=O)NCCc2cn(C)cn2)ccc1Nc1ncc2c(n1)N(C1CCCC1)CC(C)(C)C(=O)N2C [Compound I-31, 4-(9-cyclopentyl-6,7,8,9-tetrahydro-5,7,7-trimethyl-6-oxo-5H-pyrimido[4,5-b][1,4]diazepin-2-ylamino)-3-methoxy-N-(2-(1-methyl-1H-imidazo-4-yl)ethyl)benzamide]
< 10	COc1cc(C(=O)N2CC[C@H](F)C2)ccc1Nc1ncc2c(n1)N(C1CCCC1)CC(C)(C)C(=O)N2C [Compound I-32, 9-Cyclopentyl-2-[4-((S)-3-fluoro-pyrrolidine-1-carbonyl)-2-methoxyphenylamino]-5,7,7-trimethyl-5,7,8,9-tetrahydropyrimido[4,5-b][1,4]diazepin-6-one]
< 10	COc1cc(C(=O)NCCN2CCOCC2)ccc1Nc1ncc2c(n1)N(C1CCCC1)CC(C)(C)C(=O)N2C [Compound I-33, 4-(9-cyclopentyl-6,7,8,9-tetrahydro-5,7,7-trimethyl-6-oxo-5H-pyrimido[4,5-b][1,4]diazepin-2-ylamino)-3-methoxy-N-(2-morpholinoethyl)benzamide]
< 10	COc1cc(C(=O)NCCN2CCCC2)ccc1Nc1ncc2c(n1)N(C1CCCC1)CC(C)(C)C(=O)N2C [Compound I-34, 4-(9-cyclopentyl-6,7,8,9-tetrahydro-5,7,7-trimethyl-6-oxo-5H-pyrimido[4,5-b][1,4]diazepin-2-ylamino)-3-methoxy-N-(2-(pyrrolidin-1-yl)ethyl)benzamide]
10 to 100	CNC(=O)c1ccc(Nc2ncc3c(n2)N(C(C)C)CC(C)(C)C(=O)N3C)c(OC)c1 [Compound I-35, 4-(6,7,8,9-tetrahydro-9-isopropyl-5,7,7-trimethyl-6-oxo-5H-pyrimido[4,5-b][1,4]diazepin-2-ylamino)-3-methoxy-N-methylbenzamide]
< 10	CNC(=O)c1ccc(Nc2ncc3c(n2)N(C2CCCC2)CC(C)(C)c2nncn2-3)c(OC)c1 [Compound I-36, 4-(6-Cyclopentyl-4,4-dimethyl-5,6-dihydro-4H-2,3,6,7,9,10b-hexaazabenzo[e]azulen-8-ylamino)-3-methoxy-N-methylbenzamide]
< 10	COc1cc(C(=O)NCCN2CC[C@H](F)C2)ccc1Nc1ncc2c(n1)N(C1CCCC1)CC(C)(C)C(=O)N2C [Compound I-37, 4-(9-cyclopentyl-6,7,8,9-tetrahydro-5,7,7-trimethyl-6-oxo-5H-pyrimido[4,5-b][1,4]diazepin-2-ylamino)-N-(2-((S)-3-fluoropyrrolidin-1-yl)ethyl)-3-methoxybenzamide]
< 10	COc1cc(C(=O)NCCN2CCC2)ccc1Nc1ncc2c(n1)N(C1CCCC1)CC(C)(C)C(=O)N2C [Compound I-38]
< 10	COc1cc(C(=O)NCCOC(=O)N2CC[C@@H](F)C2)ccc1Nc1ncc2c(n1)N(C1CCCC1)CC(C)(C)C(=O)N2C [Compound I-39, (R)-3-Fluoro-pyrrolidine-1-carboxylic acid 2-[4-(9-cyclopentyl-5,7,7-trimethyl-6-oxo-6,7,8,9-tetrahydro-5H-pyrimido[4,5-b][1,4]diazepin-2-ylamino)-3-methoxybenzoylamino]-ethyl ester]
10 to 100	CNC(=O)c1ccc(Nc2ncc3c(n2)N(c2ccccc2)CC(C)(C)C(=O)N3C)c(OC)c1 [Compound I-40, 4-(6,7,8,9-tetrahydro-5,7,7-trimethyl-6-oxo-9-phenyl-5H-pyrimido[4,5-b][1,4]diazepin-2-ylamino)-3-methoxy-N-methylbenzamide]
10 to 100	CNC(=O)c1ccc(Nc2ncc3c(n2)N(C2CCCC2)CCc2nncn2-3)c(OC)c1 [Compound I-42, 4-(6-Cyclopentyl-5,6-dihydro-4H-2,3,6,7,9,10b-hexaaza-benzo[e]azulen-8-ylamino)-3-methoxy-N-methylbenzamide]
10 to 100	CN1C(=O)C(C)(C)CN(C2CCCC2)c2nc(Nc3ccc4nc[nH]c4c3)ncc21 [Compound I-43, 2-(1H-benzo[d]imidazol-6-ylamino)-9-cyclopentyl-8,9-dihydro-5,7,7-trimethyl-5H-pyrimido[4,5-b][1,4]diazepin-6(7H)-one]
10 to 100	CN1C(=O)C(C)(C)CN(C2CCCC2)c2nc(Nc3ccc4ncsc4c3)ncc21 [Compound I-44, 2-(benzo[d]thiazol-6-ylamino)-9-cyclopentyl-8,9-dihydro-5,7,7-trimethyl-5H-pyrimido[4,5-b][1,4]diazepin-6(7H)-one]
10 to 100	CN1C(=O)C(C)(C)CN(C2CCCC2)c2nc(Nc3ccc4c(c3)CC(=O)N4)ncc21 [Compound I-45, 2-(2-oxoindolin-5-ylamino)-9-cyclopentyl-8,9-dihydro-5,7,7-trimethyl-5H-pyrimido[4,5-b][1,4]diazepin-6(7H)-one]
10 to 100	CNC(=O)c1cccc(Nc2ncc3c(n2)N(C2CCCC2)CC(C)(C)C(=O)N3C)c1 [Compound I-46, 3-(9-cyclopentyl-6,7,8,9-tetrahydro-5,7,7-trimethyl-6-oxo-5H-pyrimido[4,5-b][1,4]diazepin-2-ylamino)-N-methylbenzamide]
< 10	CN1C(=O)C(C)(C)CN(C2CCCC2)c2nc(Nc3ccc4cn[nH]c4c3)ncc21 [Compound I-47, 2-(1H-indazo-6-ylamino)-9-cyclopentyl-8,9-dihydro-5,7,7-trimethyl-5H-pyrimido[4,5-b][1,4]diazepin-6(7H)-one]
